“And” between values parts separate entries of the source, which are not always exact repeats. Equal entries are not always repeated. Inconclusive results and toxic doses are left out. Rule for the calls: active = survival T/C of 150% or more; inactive = T/C below 125% in these data.
Tested on: BDF1 mice, P388 leukemia ip, median survival T/C
Assay: NCI In Vivo Anticancer Drug Screen. Data for tumor model P388 Leukemia (intraperitoneal) in B6D2F1 (BDF1) mice
Details: endpoint: median survival time, higher = longer survival
Protocol: The antitumor activity of compounds was measured in mice bearing transplantable tumors. Survival or tumor size were measured and the results are expressed as the measurement made in the treated group (T) divided by the measurement made in the vehicle treated control group (C). The tumor model used in this assay is P388 Leukemia (intraperitoneal) in B6D2F1 (BDF1) mice

[1] = dose: 100.0 mg/kg/injection, schedule: Q01DX009 (ip), vehicle: Klucel (hydroxypropylcellulose) (HPC)
[2] = dose: 100.0 mg/kg/injection, schedule: Q04DX003 (ip), vehicle: Klucel (hydroxypropylcellulose) (HPC)
[3] = dose: 200.0 mg/kg/injection, schedule: Q04DX003 (ip), vehicle: Klucel (hydroxypropylcellulose) (HPC)
[4] = dose: 400.0 mg/kg/injection, schedule: Q04DX003 (ip), vehicle: Klucel (hydroxypropylcellulose) (HPC)
[5] = dose: 100.0 mg/kg/injection, schedule: Q01DX009 (ip), vehicle: saline with Tween-80
[6] = dose: 200.0 mg/kg/injection, schedule: Q01DX009 (ip), vehicle: saline with Tween-80
[7] = dose: 400.0 mg/kg/injection, schedule: Q01DX009 (ip), vehicle: saline with Tween-80
[8] = dose: 50.0 mg/kg/injection, schedule: Q01DX009 (ip), vehicle: saline with Tween-80
[9] = dose: 12.5 mg/kg/injection, schedule: Q01DX009 (ip), vehicle: saline
[10] = dose: 25.0 mg/kg/injection, schedule: Q01DX009 (ip), vehicle: saline
[11] = dose: 50.0 mg/kg/injection, schedule: Q01DX009 (ip), vehicle: saline
[12] = dose: 50.0 mg/kg/injection, schedule: Q04DX003 (ip), vehicle: saline with Tween-80
[13] = dose: 100.0 mg/kg/injection, schedule: Q04DX003 (ip), vehicle: saline with Tween-80
[14] = dose: 200.0 mg/kg/injection, schedule: Q04DX003 (ip), vehicle: saline with Tween-80
[15] = dose: 25.0 mg/kg/injection, schedule: Q04DX003 (ip), vehicle: saline
[16] = dose: 50.0 mg/kg/injection, schedule: Q01DX005 (ip), vehicle: saline with Tween-80
[17] = dose: 400.0 mg/kg/injection, schedule: Q04DX003 (ip), vehicle: saline with Tween-80

Measured: T/C

CS(=O)(=O)Nc1ccc(Nc2c3ccccc3nc3cc([N+](=O)[O-])ccc23)cc1
active: dose: 0.75 mg/kg/injection, schedule: Q01DX009 (ip), vehicle: saline with Tween-80 169 % of control | dose: 1.5 mg/kg/injection, schedule: Q01DX009 (ip), vehicle: saline with Tween-80 185 % of control | dose: 1.5 mg/kg/injection, schedule: Q04DX003 (ip), vehicle: saline with Tween-80 150 % of control | dose: 3.0 mg/kg/injection, schedule: Q01DX009 (ip), vehicle: saline with Tween-80 235 % of control | dose: 3.0 mg/kg/injection, schedule: Q04DX003 (ip), vehicle: saline with Tween-80 162 % of control | dose: 6.0 mg/kg/injection, schedule: Q04DX003 (ip), vehicle: saline with Tween-80 252 % of control and 183 % of control and 200 % of control | dose: 9.0 mg/kg/injection, schedule: Q04DX003 (ip), vehicle: saline with Tween-80 285 % of control and 204 % of control | dose: 14.0 mg/kg/injection, schedule: Q04DX003 (ip), vehicle: saline with Tween-80 250 % of control and 285 % of control | dose: 21.0 mg/kg/injection, schedule: Q04DX003 (ip), vehicle: saline with Tween-80 250 % of control and 272 % of control and 157 % of control
inactive: dose: 0.09 mg/kg/injection, schedule: Q04DX003 (ip), vehicle: saline with Tween-80 91 % of control | dose: 0.18 mg/kg/injection, schedule: Q04DX003 (ip), vehicle: saline with Tween-80 100 % of control

O=[N+]([O-])c1cc([N+](=O)[O-])c2nn(-c3ccccc3)[n+]([O-])c2c1
inactive: dose: 25.0 mg/kg/injection, schedule: Q01DX009 (ip), vehicle: Klucel (hydroxypropylcellulose) (HPC) 100 % of control | dose: 50.0 mg/kg/injection, schedule: Q01DX009 (ip), vehicle: Klucel (hydroxypropylcellulose) (HPC) 100 % of control | [1] 90 % of control | [2] 95 % of control | [3] 100 % of control | [4] 100 % of control

O=c1ccc2nccc3c4ccccc4n1c23
inactive: dose: 100.0 mg/kg/injection, schedule: Q01DX001 (ip), vehicle: saline sonified 100 % of control | dose: 200.0 mg/kg/injection, schedule: Q01DX001 (ip), vehicle: saline sonified 100 % of control | dose: 400.0 mg/kg/injection, schedule: Q01DX001 (ip), vehicle: saline sonified 100 % of control

COc1ccc(C(=O)CC(C(=O)O)c2ccc(OC)c(OC)c2)cc1OC (stereo unspecified)
inactive: [5] 104 % of control | [6] 104 % of control | [7] 100 % of control

COC1OC(n2cnc3ncn(Cc4ccccc4)c3c2=N)C2OC(C)(C)OC12 (stereo unspecified)
inactive: dose: 100.0 mg/kg/injection, schedule: Q01DX001 (ip), vehicle: saline 110 % of control | dose: 200.0 mg/kg/injection, schedule: Q01DX001 (ip), vehicle: saline 95 % of control

Cc1cc(O)c(NCCCN(C)C)c2c(=O)c3ccccc3sc12
inactive: [8] 108 % of control | [6] 115 % of control

CCCCCCCCCCCCCC[N+]1([O-])CCCC1
inactive: [9] 108 % of control | [10] 100 % of control | [11] 95 % of control

CCN(CC)CCn1c(=O)c2ccccc2c2ccccc21
inactive: [9] 120 % of control | [10] 105 % of control | [11] 120 % of control

CN1/C(=C/C=C/N=C(C#N)C#N)C(C)(C)c2ccccc21
inactive: [8] 104 % of control | [5] 96 % of control | [6] 96 % of control

O=c1oc(-c2ccccc2)nc2cc(Cl)ccc12
inactive: [12] 100 % of control and 109 % of control | [13] 100 % of control and 109 % of control | [14] 104 % of control

O=C(O)CP(=O)(O)O
inactive: dose: 250.0 mg/kg/injection, schedule: Q03HX024 (ip), vehicle: saline 120 % of control

N#CC1(Nc2ccccc2)CCCCC1
inactive: dose: 25.0 mg/kg/injection, schedule: Q01DX009 (ip), vehicle: saline with Tween-80 115 % of control | [12] 109 % of control | [13] 109 % of control

Cc1ccc(Nc2n[nH]c(=S)s2)cc1C
inactive: [5] 104 % of control | [6] 109 % of control | [7] 109 % of control

Oc1cccc2cccnc12.[Cu+].[O-]c1cccc2cccnc12
inactive: dose: 1.87 mg/kg/injection, schedule: Q01DX009 (ip), vehicle: saline 104 % of control | dose: 2.75 mg/kg/injection, schedule: Q04DX003 (ip), vehicle: saline 90 % of control | dose: 3.75 mg/kg/injection, schedule: Q01DX009 (ip), vehicle: saline 100 % of control | dose: 5.5 mg/kg/injection, schedule: Q04DX003 (ip), vehicle: saline 100 % of control | dose: 11.0 mg/kg/injection, schedule: Q04DX003 (ip), vehicle: saline 113 % of control | dose: 16.0 mg/kg/injection, schedule: Q04DX003 (ip), vehicle: saline 100 % of control | [15] 100 % of control

c1cc2c(cc1CNC1=NCCO1)OCO2
inactive: dose: 100.0 mg/kg/injection, schedule: Q01DX001 (ip), vehicle: saline with Tween-80 100 % of control | dose: 200.0 mg/kg/injection, schedule: Q01DX001 (ip), vehicle: saline with Tween-80 95 % of control | dose: 400.0 mg/kg/injection, schedule: Q01DX001 (ip), vehicle: saline with Tween-80 118 % of control

Cc1cc(Cl)c2ccccc2[n+]1C
inactive: [15] 96 % of control | dose: 50.0 mg/kg/injection, schedule: Q04DX003 (ip), vehicle: saline 88 % of control | dose: 100.0 mg/kg/injection, schedule: Q04DX003 (ip), vehicle: saline 103 % of control

COCCn1c2c(nc(C(=O)OC)/c1=N\C(=O)Nc1ccccc1)CCCC2
inactive: [8] 109 % of control | [5] 106 % of control | [6] 106 % of control

CCCCCCCCCCC[N+](C)(C)CC[N+](C)(C)CCCCCCCCCCC
inactive: dose: 3.13 mg/kg/injection, schedule: Q01DX009 (ip), vehicle: saline 107 % of control | dose: 6.25 mg/kg/injection, schedule: Q01DX009 (ip), vehicle: saline 110 % of control | [9] 111 % of control

C(=N\Nc1nc2ccccc2o1)/c1ccncc1
inactive: [1] 100 % of control and 104 % of control | [2] 100 % of control | dose: 200.0 mg/kg/injection, schedule: Q01DX009 (ip), vehicle: Klucel (hydroxypropylcellulose) (HPC) 109 % of control | [3] 95 % of control | dose: 400.0 mg/kg/injection, schedule: Q01DX009 (ip), vehicle: Klucel (hydroxypropylcellulose) (HPC) 105 % of control and 109 % of control | [4] 100 % of control

c1ccc2c[n+]3cc4ccccc4cc3cc2c1
inactive: dose: 8.75 mg/kg/injection, schedule: Q01DX009 (ip), vehicle: saline 95 % of control | dose: 12.5 mg/kg/injection, schedule: Q04DX003 (ip), vehicle: saline 91 % of control | dose: 17.5 mg/kg/injection, schedule: Q01DX009 (ip), vehicle: saline 100 % of control | [15] 100 % of control

CCOC(=O)CCN(CCN(C)C)c1cc(O)c2c(c1O)C(=O)c1ccccc1C2=O
inactive: [16] 123 % of control

COc1ccc(C(C)=O)cc1CO/N=C1\CSCc2ccccc21
inactive: [8] 101 % of control | [5] 119 % of control | [6] 108 % of control

S=c1c2[nH]cnc2ncn1CCSC1=NC=NC2=NC=NC21 (stereo unspecified)
inactive: [13] 100 % of control | [14] 95 % of control | [17] 109 % of control

O=C1c2ccccc2C(=O)N1CN1CCN(c2ccc(F)cc2)CC1
inactive: [16] 103 % of control | dose: 100.0 mg/kg/injection, schedule: Q01DX005 (ip), vehicle: saline with Tween-80 94 % of control | dose: 200.0 mg/kg/injection, schedule: Q01DX005 (ip), vehicle: saline with Tween-80 103 % of control

CC(=O)CC(=O)Nc1ccc(N=Nc2ccccc2)cc1
inactive: [13] 109 % of control | [14] 109 % of control | [17] 119 % of control

N=Cc1c(O)n(-c2ccccc2)c(=O)[nH]c1=O
inactive: [5] 112 % of control | [6] 100 % of control | [7] 104 % of control
